Experimental data reported in patent US6774220B1, “Compounds having lectinic properties and their biological applications” (Association pour le Développement de la Biothérapie …, priority 1995, dated 2004).
One block for each molecule: values may come before it.

Experiments:
[1] = system: Ost. Sarc. ESS (SCLs excreted by the osteogenic sarcoma ESS); assay: Antibody titre against SCL excreted by osteogenic sarcoma ESS; type: binding
Description: (§1) By operating according to standard techniques, the formation of antibodies against the SEQ ID NO: 5 peptides or SEQ ID NO:6 is induced. The specific characters of these antibodies is set out in Table 7.

[2] = target: oligopeptide 81-95 (SEQ ID NO: 6) (Homo sapiens, UniProt P08729); assay: Antibody titre against oligopeptide antigen 81-95; type: binding
Description: as §1

[3] = target: oligopeptide 41-55 (SEQ ID NO: 5) (Homo sapiens, UniProt P08729); assay: Antibody titre against oligopeptide antigen 41-55; type: binding
Description: as §1

[4] = system: T (lympho) cells; assay: Stimulation over 24 hours of the synthesis of DNA in T (lympho) cells; type: cell-based
Experimental: XI Stimulation over 24 hours of the synthesis of DNA in T (lympho) cells

[5] = system: TG-180 tumour cells; assay: Antitumour action on grafted TG-180 ascitic tumour
[6] = system: encephalomyocarditis virus (EMC); assay: Protection of IFN against the encephalomyocarditis virus in Swiss mice, with SCL inhibiting sugars; type: in vivo; conditions: EMC virus i.p.
Experimental: The model used is the encephalomyocarditis virus (EMC) which kills mice in practically all cases after rather varying but relatively short incubation periods.
Male mice (average weight: […], aged 8 to 10 weeks) were injected i.p. with sodium galacturonate, glucosamine and N-acetylneuraminic acid (5 to 10% solutions containing 100 mM sugar). 24 hours afterwards, one hundred lethal doses (50%) of EMC virus are injected by the same route. After one hour, murine interferon is injected (in a dose of 20,000 units in 0.5 ml). Table 3 gives the number of animals surviving out of the total tested, the percentage and statistical significance.

[7] = system: murine sarcolectin; assay: Action of simple sugars on the agglutination of cells by sarcolectin; type: cell-based, Swiss mice; conditions: in the presence of 2 agglutinating units of murine sarcolectin; H9 cells
Experimental: A wide variety of cells originating either from rodents or from primates was tested. Agglutination is obtained by suspending the cells in an MEM medium in the absence of serum. The test may be carried out in two ways, either in the presence of a sarcolectin dilution range in a base 2 geometric progression, by identifying the concentration at which 50% of the cells are agglutinated, or by identifying the affinity of the various sugars for the cell receptors.
In the example shown, murine sarcolectin originating from the ascitic fluid of Swiss mice grafted with Crocker TG180 sarcoma contains 32 units agglutinating the H9 cells which originate from a T lymphoma, fixed by 10% formaldehyde.
The table below illustrates the affinity of the receptors for the various sugars in the presence of 2 agglutinating units.

[8] = IL2 (100 u) +SCL + inhibitor (NANA 0.75 mmol.; oligo 41-55 3 μγ/ml)
[9] = single agent (+MEM, or IFN in reference group)

antibody titre, oligopeptide 81-95 as antigen [2]: <200 | antibody titre, oligopeptide 41-55 as antigen [3]: >12 600
Molecule: 41-55 (GLGASRPRVAVRSAY)
antibody titre, Ost. Sarc. ESS as antigen [1]: >12 800

antibody titre, oligopeptide 81-95 as antigen [2]: >12 800 | antibody titre, oligopeptide 41-55 as antigen [3]: <200
Molecule: 81-95 (DPFSQRVRQEESEQI)

Molecule: CC(=O)N[C@H]1[C@H]([C@H](O)[C@H](O)CO)OC(O)(C(=O)O)C[C@@H]1O (stereo partly drawn) [N.A.N.A, N-acetylneuraminic acid]
effect on the stimulation of DNA synthesis by SCL (in words) ([4]; 24 hours): inhibited | synthesis of DNA, EXP. N° 1 [4, 8]: 4,657 ± 214.78 | synthesis of DNA, EXP. N° 2 [4, 8]: 27,133 ± 1771 | Final survival (%) ([5]; +CP): (53) % | Final survival, Number ([5]; +CP): 8 | MST (mean survival time) ([5]; +CP): 69 ± 12 days | Tumours on 10th day (%) ([5]; +CP): 40% | Tumours on 10th day, number ([5]; +CP): 6 | Final survival (%) ([5]; +CP +IFN): (36) % | Final survival, Number ([5]; +CP +IFN): 11 | MST (mean survival time) ([5]; +CP +IFN): 70 ± 12 days | Tumours on 10th day (%) ([5]; +CP +IFN): 43% | Tumours on 10th day, number ([5]; +CP +IFN): 13 | Final survival (%) ([5]; +IFN): (13) % | Final survival, Number ([5]; +IFN): 4 | MST (mean survival time) ([5]; +IFN): 39 ± 12 days | Tumours on 10th day (%) ([5]; +IFN): 16% | Tumours on 10th day, number ([5]; +IFN): 5 | Final survival (%) ([5]; agent alone): (0) % | Final survival, Number ([5]; agent alone): 0 | MST (mean survival time) ([5]; agent alone): 24 ± 6 days | Tumours on 10th day (%) ([5]; agent alone): 34% | Tumours on 10th day, number ([5]; agent alone): 9 | number of animals surviving out of the total number tested [6, 9]: 0/15 | percentage surviving [6, 9]: 0% | number of animals surviving out of the total number tested ([6]; sugar +IFN (20,000 units)): 8/15c | percentage surviving ([6]; sugar +IFN (20,000 units)): 53% | affinity [7]: 0.0075 mM
